In article PMC11571207, “Stereorandomized Oncocins with Preserved Ribosome Binding and Antibacterial Activity” (Journal of Medicinal Chemistry, 2024):
In brackets after ≈: the same amount, converted by molar mass. Like-named read-outs stand apart in the source and are kept apart here. Non-standard residues stand in square brackets, D forms with d. Residues, ends and D or L forms follow the SMILES beside them.

Columns and labels:
[1] = tested on: P. aeruginosa PA14 4.18 (pmrB); conditions: for MIC P. aeruginosa PA14 4.18: supplement CSV
[2] = tested on: human red blood cells; experiment: Hemolysis assay, minimum hemolytic concentration
[3] = tested on: K. pneumoniae OXA-48; experiment: microbe, parasite or virus in culture; conditions: for MIC K. pneumoniae OXA-48: supplement CSV
Protocol: (§1) Minimum inhibitory concentration assay
(§2) Antimicrobial activity was assayed against P. aeruginosa PAO1, K. pneumoniae NCTC418, E. coli W3110, A. baumannii ATCC 19606, methicillin-resistant S. aureus COL (MRSA), and for selected peptides on P. aeruginosa PA14 and the polymyxin-B-resistant derivative PA14 2P4, as well as the clinical isolates ZEM-1A and ZEM9A, K. pneumoniae OXA-48, S. aureus Newman, Enterobacter cloacae and Burkholderia cenocepacia. The minimal inhibitory concentration (MIC) was determined by using broth microdilution method. A colo ny of bacteria was picked and grown in Luria-Bertani (LB) medium overnight at 37°C. For E. coli BW25113 sbmA::kan the medium was supplemented with 25 mg/L of kanamycin. The next day, the culture was then regrown in LB medium to log phase (OD600 = 0.6 to 0.8), which lasted approximately 4 h, and diluted to an OD600 of 0.022 in the desired medium. Stock solutions of 1 mg/mL of the samples were prepared in sterilized milliQ water and diluted to the beginning concentration of 64 μg/mL in 300 μL Mueller Hinton (MH)-medium. The diluted samples were added to first well of 96-well microtiter plate (TPP, untreated, Faust Laborbedarf, AG, Schaffhausen) and diluted serially by ½. Finally, 4 μL of the bacterial suspension was inoculated into the sample solutions (150 μL/well) with a final inoculation of about 5∙10^5 CFU/mL. The plates were then incubated at 37°C for 15-18h. For each assay, sterility (broth only) and growth control (broth with bacterial inoculum, without antibiotics) were checked with two columns in the plate. The next day, 15 μL of 3-(4,5-dimethylthiazol-2-yl)-2,5-diphenyltetrazolium bromide (MTT) was added to each well of the plate, such a way that MIC was defined as the lowest concentration of the peptide that inhibited visible growth of the tested

[4] = tested on: E. cloacae; experiment: microbe, parasite or virus in culture; conditions: for MIC E. cloacae: supplement CSV
Protocol: as §1, §2

[5] = tested on: P. aeruginosa PA14 2P4 (pmrB); experiment: microbe, parasite or virus in culture; conditions: for MIC P. aeruginosa PA14 2P4: supplement CSV
Protocol: as §1, §2

[6] = tested on: P. aeruginosa PA14; experiment: microbe, parasite or virus in culture; conditions: for MIC P. aeruginosa PA14: supplement CSV
Protocol: as §1, §2

[7] = tested on: P. aeruginosa ZEM9A; experiment: microbe, parasite or virus in culture; conditions: for MIC P. aeruginosa ZEM9A: supplement CSV
Protocol: as §1, §2

[8] = tested on: P. aeruginosa ZEM-1A; experiment: microbe, parasite or virus in culture; conditions: for MIC P. aeruginosa ZEM-1A: supplement CSV
Protocol: as §1, §2

[9] = tested on: P. aeruginosa PA14 4.13 (phoQ); conditions: for MIC P. aeruginosa PA14 4.13: supplement CSV
[10] = tested on: K. pneumoniae NCTC 418; experiment: microbe, parasite or virus in culture; conditions: for MIC K. pneumoniae NCTC418: supplement CSV
Summary of the method: (§3)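 Read-out was visible growth after MTT addition, the MIC being the lowest inhibitory peptide concentration. Bacteria grown to log phase in LB were exposed in MH medium to peptide from 64 μg/mL in twofold dilutions for 15-18h at 37°C.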

[11] = tested on: P. aeruginosa PAO1; experiment: microbe, parasite or virus in culture; conditions: for MIC P. aeruginosa PAO1: supplement CSV
Summary of the method: as §3

[12] = tested on: E. coli W3110; experiment: microbe, parasite or virus in culture; conditions: for MIC E. coli W3110: supplement CSV
Summary of the method: as §3

[13] = tested on: A. baumannii ATCC19606; experiment: microbe, parasite or virus in culture; conditions: for MIC A. baumannii ATCC19606: supplement CSV
Summary of the method: as §3

[14] = tested on: S. aureus COL (MRSA); experiment: microbe, parasite or virus in culture; conditions: for MIC S. aureus COL (MRSA): supplement CSV
Summary of the method: as §3

[15] = polymyxin B resistant strain, 12.5% MHB pH 7.4, 16–20 h at 37 °C
[16] = polymyxin B resistant strain, full MHB pH 7.4, 16–20 h at 37 °C

CC[C@H](C)[C@H](NC(=O)[C@H](CCCNC(=N)N)NC(=O)[C@H](CCCNC(=N)N)NC(=O)[C@@H]1CCCN1C(=O)[C@@H]1CCCN1C(=O)[C@H](CCCNC(=N)N)NC(=O)[C@@H]1CCCN1C(=O)[C@H](CCCNC(=N)N)NC(=O)[C@@H]1CCCN1C(=O)[C@@H](CC(C)C)NC(=O)[C@H](Cc1ccc(O)cc1)NC(=O)[C@@H]1CCCN1C(=O)[C@@H]1CCCN1C(=O)[C@H](CCCCN)NC(=O)[C@H](CC(=O)O)NC(=O)[C@@H](N)C(C)C)C(=O)N[C@@H](Cc1ccc(O)cc1)C(=O)N[C@@H](CC(N)=O)C(=O)N[C@@H](CCCNC(=N)N)C(N)=O [DL7-Onc] (H-VDKPPY[dL]PRPRPPRRIYNR-NH2)
MIC P. aeruginosa PA14 4.18 (pmrB), 12.5% MHB [1, 15]: >32/>32 μg/mL | MIC P. aeruginosa PA14 4.18 (pmrB), full MHB [1, 16]: >32/>32 μg/mL | MIC P. aeruginosa PA14 4.18 ([1]; 12.5% MH pH 7.4): >32 µg/mL | MIC P. aeruginosa PA14 4.18 ([1]; full MH pH 7.4): >32 µg/mL | Haemolysis on hRBC, MHC ([2]; 2.5% human red blood cells (final) in 10 mM phosphate, 150 mM NaCl, pH 7.4, 25 °C, 4 h, visual inspection): >1000 µg/mL | MHC human red blood cells ([2]; supplement CSV): >1000 µg/mL | MIC K. pneumoniae OXA-48, 12.5% MHB ([3]; carbapenem-resistant, 12.5% MHB pH 7.4, 16–20 h at 37 °C): >64/>64 μg/mL | MIC K. pneumoniae OXA-48, full MHB ([3]; carbapenem-resistant, full MHB pH 7.4, 16–20 h at 37 °C): >64/>64 μg/mL | MIC K. pneumoniae OXA-48 ([3]; 12.5% MH pH 7.4): >64 µg/mL | MIC K. pneumoniae OXA-48 ([3]; full MH pH 7.4): >64 µg/mL | MIC E. cloacae, 12.5% MHB ([4]; 12.5% MHB pH 7.4, 16–20 h at 37 °C): 32 µg/mL (≈ 13.4 µM) | MIC E. cloacae, full MHB ([4]; full MHB pH 7.4, 16–20 h at 37 °C): > 64 µg/mL | MIC E. cloacae ([4]; 12.5% MH pH 7.4): 32 µg/mL (≈ 13.4 µM) | MIC E. cloacae ([4]; full MH pH 7.4): >64 µg/mL | MIC P. aeruginosa PA14 2P4 (pmrB), 12.5% MHB [5, 15]: 32 µg/mL (≈ 13.4 µM) | MIC P. aeruginosa PA14 2P4 (pmrB), full MHB [5, 16]: > 64 µg/mL | MIC P. aeruginosa PA14 2P4 ([5]; 12.5% MH pH 7.4): 32 µg/mL (≈ 13.4 µM) | MIC P. aeruginosa PA14 2P4 ([5]; full MH pH 7.4): >64 µg/mL | MIC P. aeruginosa PA14, 12.5% MHB ([6]; 12.5% MHB pH 7.4, 16–20 h at 37 °C, two different duplicate MIC determinations): >32/>32 μg/mL | MIC P. aeruginosa PA14, full MHB ([6]; full MHB pH 7.4, 16–20 h at 37 °C, two different duplicate MIC determinations): >32/>32 μg/mL | MIC P. aeruginosa PA14 ([6]; 12.5% MH pH 7.4): >32 µg/mL | MIC P. aeruginosa PA14 ([6]; full MH pH 7.4): >32 µg/mL | MIC P. aeruginosa ZEM9A, 12.5% MHB ([7]; clinical isolate, 12.5% MHB pH 7.4, 16–20 h at 37 °C): >64/>64 μg/mL | MIC P. aeruginosa ZEM9A, full MHB ([7]; clinical isolate, full MHB pH 7.4, 16–20 h at 37 °C): >64/>64 μg/mL | MIC P. aeruginosa ZEM9A ([7]; 12.5% MH pH 7.4): >64 µg/mL | MIC P. aeruginosa ZEM9A ([7]; full MH pH 7.4): >64 µg/mL | MIC P. aeruginosa ZEM-1A, 12.5% MHB ([8]; clinical isolate, 12.5% MHB pH 7.4, 16–20 h at 37 °C, cells marked c: single measurement (in duplicates)): >64/>64 ^c μg/mL | MIC P. aeruginosa ZEM-1A, full MHB ([8]; clinical isolate, full MHB pH 7.4, 16–20 h at 37 °C, cells marked c: single measurement (in duplicates)): >64/>64 ^c μg/mL | MIC P. aeruginosa ZEM-1A ([8]; 12.5% MH pH 7.4): >64 µg/mL | MIC P. aeruginosa ZEM-1A ([8]; full MH pH 7.4): >64 µg/mL | MIC P. aeruginosa PA14 4.13 (phoQ), 12.5% MHB [9, 15]: >32/>32 μg/mL | MIC P. aeruginosa PA14 4.13 (phoQ), full MHB [9, 16]: >32/>32 μg/mL | MIC P. aeruginosa PA14 4.13 ([9]; 12.5% MH pH 7.4): >32 µg/mL | MIC P. aeruginosa PA14 4.13 ([9]; full MH pH 7.4): >32 µg/mL | MIC K. pneumoniae, 12.5% MHB ([10]; K. pneumoniae NCTC 418, 12.5% Müller–Hinton medium, 16–20 h at 37 °C): > 16 µg/mL | MIC K. pneumoniae, Full MHB ([10]; K. pneumoniae NCTC 418, full Müller–Hinton medium, 16–20 h at 37 °C): > 64 µg/mL | MIC K. pneumoniae NCTC418 ([10]; 12.5% MH pH 7.4): >16 µg/mL | MIC K. pneumoniae NCTC418 ([10]; full MH pH 7.4): >64 µg/mL | MIC P. aeruginosa, 12.5% MHB ([11]; P. aeruginosa PAO1, 12.5% Müller–Hinton medium, 16–20 h at 37 °C): > 16 µg/mL | MIC P. aeruginosa, Full MHB ([11]; P. aeruginosa PAO1, full Müller–Hinton medium, 16–20 h at 37 °C): > 64 µg/mL | MIC P. aeruginosa PAO1 ([11]; 12.5% MH pH 7.4): >16 µg/mL | MIC P. aeruginosa PAO1 ([11]; full MH pH 7.4): >64 µg/mL | MIC E. coli, 12.5% MHB ([12]; E. coli W3110, 12.5% Müller–Hinton medium, 16–20 h at 37 °C, broth microdilution): 8 µg/mL (≈ 3.35 µM) | MIC E. coli, Full MHB ([12]; E. coli W3110, full Müller–Hinton medium, 16–20 h at 37 °C, broth microdilution): > 64 µg/mL | MIC E. coli W3110 ([12]; 12.5% MH pH 7.4): 8 µg/mL (≈ 3.35 µM) | MIC E. coli W3110 ([12]; full MH pH 7.4): >64 µg/mL | MIC A. baumannii, 12.5% MHB ([13]; A. baumannii ATCC19606, 12.5% Müller–Hinton medium, 16–20 h at 37 °C): > 16 µg/mL | MIC A. baumannii, Full MHB ([13]; A. baumannii ATCC19606, full Müller–Hinton medium, 16–20 h at 37 °C): > 64 µg/mL | MIC A. baumannii ATCC19606 ([13]; 12.5% MH pH 7.4): >16 µg/mL | MIC A. baumannii ATCC19606 ([13]; full MH pH 7.4): >64 µg/mL | MIC S. aureus, 12.5% MHB ([14]; S. aureus COL (MRSA), 12.5% Müller–Hinton medium, 16–20 h at 37 °C): >64 / >64 μg/mL | MIC S. aureus, Full MHB ([14]; S. aureus COL (MRSA), full Müller–Hinton medium, 16–20 h at 37 °C): >64 / >64 μg/mL | MIC S. aureus COL (MRSA) ([14]; 12.5% MH pH 7.4): >64 µg/mL | MIC S. aureus COL (MRSA) ([14]; full MH pH 7.4): >64 µg/mL
